Consider 15 compounds from PMC4273980 (ACS Chemical Biology, 2014).

“Also recorded” adds a separate entry of the source.

One experiment has as its target T1, P2Y14R (Homo sapiens, UniProt Q15391).
T1 sequence (Q15391 1-338): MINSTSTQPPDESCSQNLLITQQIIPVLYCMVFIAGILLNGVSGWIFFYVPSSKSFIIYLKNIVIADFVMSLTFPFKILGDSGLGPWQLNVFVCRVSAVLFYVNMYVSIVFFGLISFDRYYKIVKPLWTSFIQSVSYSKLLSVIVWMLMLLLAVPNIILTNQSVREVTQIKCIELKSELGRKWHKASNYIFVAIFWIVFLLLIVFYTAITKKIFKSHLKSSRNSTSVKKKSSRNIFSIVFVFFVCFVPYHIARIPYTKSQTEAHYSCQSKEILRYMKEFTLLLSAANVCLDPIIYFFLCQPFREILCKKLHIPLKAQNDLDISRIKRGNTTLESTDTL
Briefly: Flow cytometry. The note with it: 10 μM competing ligand, 30 min preincubation; 10 nM 30.
`O=c1ccn([C@@H]2O[C@H](COP(=O)(O)OP(=O)(O)O)[C@@H](O)[C@H]2O)c(=O)[nH]1` [compound 1, uridine-5′-diphosphate]: the “effect of competing ligand on labeling of P2Y14R-CHO cells by 30, in words” value (“effect of competing ligand” for short) is given as “largely prevented the labeling”.

Consider `O=C(O)c1cc(-c2ccc(C3CCNCC3)cc2)c2ccc(-c3ccc(C(F)(F)F)cc3)cc2c1` [compound 6, 4-(4-(piperidin-4-yl)-phenyl)-7-(4-(trifluoromethyl)-phenyl)-2-naphthoic acid], for which the “effect of competing ligand” value is listed as “largely prevented the labeling”.

Consider `O=C(O)[C@H]1O[C@H](OP(=O)(O)OP(=O)(O)OC[C@H]2O[C@@H](n3ccc(=O)[nH]c3=O)[C@H](O)[C@@H]2O)[C@H](O)[C@@H](O)[C@@H]1O` [compound 36, uridine-5′-diphosphoglucuronic acid], for which the “effect of competing ligand” value is listed as “largely prevented the labeling”.

For the compound `CNc1ncnc2c1ncn2[C@H]1C[C@H](OP(=O)(O)O)[C@@H](COP(=O)(O)O)O1` [compound 37], the “effect of competing ligand” value is recorded as “failed at 10 μM to prevent binding of 30”.

Regarding `S=C=Nc1cccc(NC(=S)NCCCCNC(=S)Nc2cccc(N=C=S)c2)c1` [compound 38], the “effect of competing ligand” value is “failed at 10 μM to prevent binding of 30”.

With `Cc1ccc(C(=O)Nc2ccc(S(=O)(=O)O)c3cc(S(=O)(=O)O)cc(S(=O)(=O)O)c23)cc1NC(=O)c1cccc(NC(=O)Nc2cccc(C(=O)Nc3cc(C(=O)Nc4ccc(S(=O)(=O)O)c5cc(S(=O)(=O)O)cc(S(=O)(=O)O)c45)ccc3C)c2)c1` [suramin], the “effect of competing ligand” value is “only a minor reduction”.

Another experiment deals with T2, hP2Y14R (Homo sapiens, UniProt Q15391).
T2 sequence (Q15391 1-338): T1 sequence (Q15391 1-338)
Briefly: Antagonism of 2. In kind it is cell-based.
Details: not given
`CCOC(=O)c1cc(-c2ccc(C3CCNCC3)cc2)c2ccc(-c3ccc(C(F)(F)F)cc3)cc2c1` [compound 19]: the affinity corresponds to a Ki of 120 ± 8 nM.

Compound `C#CCCN1CCC(c2ccc(-c3cc(C(=O)O)cc4cc(-c5ccc(C(F)(F)F)cc5)ccc34)cc2)CC1` [compound 20] registered an inhibition constant Ki of 2.7 ± 1.2 nM.

For `C#CCCCCN1CCC(c2ccc(-c3cc(C(=O)O)cc4cc(-c5ccc(C(F)(F)F)cc5)ccc34)cc2)CC1` [compound 22], the inhibition constant (Ki) stood at 13 ± 1.1 nM.

For `C=C1CCC[N+]12CCC(c1ccc(-c3cc(C(=O)[O-])cc4cc(-c5ccc(C(F)(F)F)cc5)ccc34)cc1)CC2` (centres unmarked) [compound 23], the inhibition constant Ki stood at 2 ± 0.2 nM.

Consider `C#CCCC(=O)N1CCC(c2ccc(-c3cc(C(=O)O)cc4cc(-c5ccc(C(F)(F)F)cc5)ccc34)cc2)CC1` [compound 24], for which the Ki was 6.7 ± 2.2 nM.

Compound `C#CCCCCC(=O)N1CCC(c2ccc(-c3cc(C(=O)O)cc4cc(-c5ccc(C(F)(F)F)cc5)ccc34)cc2)CC1` [compound 25] yielded a Ki of 8.3 ± 1.9 nM.

`CC(C)(C)OC(=O)NCCCN1CCC(c2ccc(-c3cc(C(=O)O)cc4cc(-c5ccc(C(F)(F)F)cc5)ccc34)cc2)CC1` [compound 26] registered an inhibition constant (Ki) of 26 ± 6 nM.

In the case of `NCCCN1CCC(c2ccc(-c3cc(C(=O)O)cc4cc(-c5ccc(C(F)(F)F)cc5)ccc34)cc2)CC1` [compound 27], the inhibition constant Ki was 14 ± 2.4 nM.

`O=C(CCCCCNC(=O)COc1ccc(/C=C/C2=CC3=Cc4ccc(-c5cccs5)n4[B-](F)(F)[N+]3=C2)cc1)NCCCn1cc(CCCCN2CCC(c3ccc(-c4cc(C(=O)O)cc5cc(-c6ccc(C(F)(F)F)cc6)ccc45)cc3)CC2)nn1` [compound 32] showed a Ki above 100 nM.

Still in this experiment, the particulars now being: P2Y14R-CHO cells.
On to `O=C(CCCCCNC(=O)COc1ccc(/C=C/C2=CC3=Cc4ccc(-c5cccs5)n4[B-](F)(F)[N+]3=C2)cc1)NCCCn1cc(CCCCN2CCC(c3ccc(-c4cc(C(=O)O)cc5cc(-c6ccc(C(F)(F)F)cc6)ccc45)cc3)CC2)nn1` [compound 32], for which the “antagonist potency / affinity at P2Y14R, in words” value was “much weaker; also recorded: low affinity”.

The experiment is the same for the next values; noted with them: relative to 6.
With `CCOC(=O)c1cc(-c2ccc(C3CCNCC3)cc2)c2ccc(-c3ccc(C(F)(F)F)cc3)cc2c1` [compound 19], the “fold weaker as an antagonist than free carboxylate analogue 6” value is 400 fold.
